In patent US7314858B2, “Retrocyclins: antiviral and antimicrobial peptides” (priority 2001, dated 2008):
Where a SMILES comes first, the peptide text is derived from it. Bridges are numbered along the chain shown (N, C = ends).

How the values were obtained:
HIV-1 strain JR-CSF = assay: HIV proviral DNA formation, quantitative real time PCR in CD4+-selected PBMC; format: cell-based; settings: 20 μg/ml, MOI 0.1
Excerpt: FIG. 13. Retrocyclin and RC-101 inhibited the formation of HIV proviral DNA. Retrocyclin and RC-101 inhibited the formation of DNA from both early events (total HIV DNA) and later events (full-length HIV DNA) of reverse transcription. Data are an average of 2 experiments, except for RC-101 (1 experiment). “HI virus” is a heat-inactivated virus control for background levels of viral DNA.
Retrocyclin inhibits HIV replication at an early step (reverse transcription or before). To determine whether retrocyclin blocked the formation of proviral DNA in HIV-JR-CSF-inoculated CD4^+-selected PBMC, quantitative real time PCR was performed. This method is more sensitive than measuring p24 release and can detect infection even when p24 values may be affected by virus carried over from the original inoculum. CD4^+-selected PBMC (10^6 cells) were incubated in 250 μl at 37° C./5% CO2 for 3 hr with either HIV-1 strain JR-CSF (MOI=0.1), heat-inactivated virus (background control), JR-CSF+20 μg/ml retrocyclin or JR-CSF+20 μg RC-101. Cells were washed and resuspended in 1 ml R10-50 media, and incubated for an additional 9 hours. Following incubation, cells were pelleted at 300×g, removed of overlying supernatant, and stored at −80° C. until analyzed by real time PCR.

gp120 (BaL) = assay: Surface plasmon resonance binding; set-up: species or system HIV-1; settings: immobilized gp120(BaL)
Excerpt: Surface plasmon resonance. Recombinant human soluble CD4 (full-length 45 kDa glycosylated ectodomain) was produced by ExpresSF+S. frugiperda cells in serum-free medium (Protein Sciences Corporation, Meriden, Conn.). Glycosylated HIV-1 gp120 (LAV) envelope glycoprotein (Catalog No. 2003-LAV) was purchased from the same source. Recombinant HIV-1BaL was obtained through the AIDS Research and Reference Reagent Program, Division of AIDS, National Institute of Allergy and Infectious Disease, NIH.
Surface plasmon resonance (SPR) experiments were done with a Biacore 2000 system (Biacore, Inc., Piscataway, N.J.). The running buffer (pH 7.4) contained 10 mM HEPES, 150 mM NaCl, 3 mM EDTA and 0.005% polysorbate 20. The immobilized proteins (gp120-LAV and CD4) were dissolved at 20 μg/ml in 10 mM sodium acetate, pH 5.0 and immobilized on a Biacore CM5 sensor chip using the amine coupling method. The chip was activated by mixing 400 mM EDC (N-ethyl-N-(3-dimethylaminopropyl)-carbodiimide hydrochloride) and 100 mM N-hydroxysuccinimide. […] Residual reactive groups on the chip surface were blocked using 1.0 Methanolamine/HCl, pH 8.5.
The flow cell chip used as a control lacked immobilized protein but was otherwise treated as above. Signals were corrected for nonspecific binding by subtracting the control signal. To regenerate the chip surface, bound ligands were removed with 10 mM HCl. Data were analyzed with BIAevaluation 3.1 software. Curve fitting was done with an assumption of 1:1 binding.
In those experiments, biosensor chips containing immobilized gp120 or CD4 were perfused with a 1 μg/ml solution of the peptides, and binding was measured by surface plasmon resonance. […] No binding studies were performed with gp120 preparations derived from non-B HIV-1 subtypes.

HSV-1 = assay: HSV inactivation microplate assay on ME-180 cells (MTT); format: cell-based, herpes simplex virus, type 1; settings: 2-50 μg/ml, 2 hrs with virus, 72 hrs culture
Protocol: FIG. 14. Inactivation of HSV-1 and HSV-2 by retrocyclin and RC-101. Retrocyclin (left panel) and RC-101 (right panel) at the indicated concentrations were incubated with herpes simplex virus, type 1 (HSV-1) or HSV-2 for 2 hrs and then added to ME-180 cell monolayers. Cells were incubated at 37° C. for 72 hrs, and cytotoxicity was measured with an MTT kit.
Some retrocyclins are slightly active against herpes simplex virus (HSV). To determine if the activity of retrocyclin against HIV-1 was specific or representative of a more global antiviral effect, it was tested its ability to prevent HSV infection in vitro. A quantitative microplate assay was used to screen retrocyclin and retrocyclin-congeners for their ability to inactivate HSV type 1 (HSV-1) and HSV-2. The assay utilized small amounts of peptide and simultaneously evaluated for peptide-induced cytotoxicity. In brief, final peptide concentrations of 2-50 μg/ml were incubated with virus stocks for 2 hrs and added directly to ME-180 human cervical carcinoma cells. Cultures were incubated at 37° C. for 72 hrs and cytotoxicity was measured using a 3-(4,5-dimethylthiazon-2-yl)-2,5-diphenyltetrazolium bromide (MTT) cell proliferation kit (Boehringer-Mannheim, Germany). Calculations to assess antiviral activity and compute “percent protection” are delineated in (90).

| Structure (SMILES) | formation of HIV-1 proviral DNA (HIV-1 strain JR-CSF) | Kd (gp120 (BaL)) [nM] | koff (gp120 (BaL)) | kon (gp120 (BaL)) | protection against HSV-1 (HSV-1) |
| --- | --- | --- | --- | --- | --- |
| CC[C@H](C)[C@@H]1NC(=O)CNC(=O)[C@H](CCCNC(=N)N)NC(=O)CNC(=O)[C@@H]2CSSC[C@H](NC1=O)C(=O)N[C@@H](CCCNC(=N)N)C(=O)N[C@H]1CSSC[C@H](NC(=O)[C@H](CCCNC(=N)N)NC(=O)[C@@H]3CSSC[C@H](NC(=O)[C@H]([C@@H](C)CC)NC1=O)C(=O)NCC(=O)N[C@@H](CCCNC(=N)N)C(=O)NCC(=O)N[C@@H]([C@@H](C)CC)C(=O)N3)C(=O)N[C@@H]([C@@H](C)CC)C(=O)N2 [RC-100, Retrocyclin] (cyclo(GICRCICGRGICRCICGR); disulfide 3-16, 5-14, 7-12) | inhibited the formation of HIV-1 proviral DNA | 29.2 | 4.12 × 10^−3 | 14.1 × 10^4 | not HSV-1 |
| CC[C@H](C)[C@@H]1NC(=O)CNC(=O)[C@H](CCCCN)NC(=O)CNC(=O)[C@@H]2CSSC[C@H](NC1=O)C(=O)N[C@@H](CCCNC(=N)N)C(=O)N[C@H]1CSSC[C@H](NC(=O)[C@H](CCCNC(=N)N)NC(=O)[C@@H]3CSSC[C@H](NC(=O)[C@H]([C@@H](C)CC)NC1=O)C(=O)NCC(=O)N[C@@H](CCCNC(=N)N)C(=O)NCC(=O)N[C@@H]([C@@H](C)CC)C(=O)N3)C(=O)N[C@@H]([C@@H](C)CC)C(=O)N2 [RC-101, R9K-Retrocyclin] | inhibited the formation of HIV-1 proviral DNA | 20.5 | 5.55 × 10^−3 | 27.0 × 10^4 | modestly protective |
